According to PMC3762675 (Chembiochem : a European journal of chemical biology, 2013):

Target: p38 and MK2 (Homo sapiens, UniProt Q16539)
Assay type: binding
Conditions: competitor 10 μM, LTR 2 500 nM, p38 400 nM, MK2 400 nM, UV 30 min

Chain of p38 and MK2 (Q16539 whole entry): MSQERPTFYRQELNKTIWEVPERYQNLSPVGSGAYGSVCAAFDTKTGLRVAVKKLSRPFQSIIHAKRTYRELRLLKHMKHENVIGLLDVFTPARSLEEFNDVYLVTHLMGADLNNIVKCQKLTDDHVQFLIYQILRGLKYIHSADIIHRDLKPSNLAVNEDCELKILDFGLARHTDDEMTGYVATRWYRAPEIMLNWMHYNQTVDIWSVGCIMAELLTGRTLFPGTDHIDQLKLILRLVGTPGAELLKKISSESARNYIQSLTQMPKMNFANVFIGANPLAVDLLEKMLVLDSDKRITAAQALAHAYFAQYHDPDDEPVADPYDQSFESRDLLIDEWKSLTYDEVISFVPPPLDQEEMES
Chain of p38 and MK2 (P49137 whole entry partner): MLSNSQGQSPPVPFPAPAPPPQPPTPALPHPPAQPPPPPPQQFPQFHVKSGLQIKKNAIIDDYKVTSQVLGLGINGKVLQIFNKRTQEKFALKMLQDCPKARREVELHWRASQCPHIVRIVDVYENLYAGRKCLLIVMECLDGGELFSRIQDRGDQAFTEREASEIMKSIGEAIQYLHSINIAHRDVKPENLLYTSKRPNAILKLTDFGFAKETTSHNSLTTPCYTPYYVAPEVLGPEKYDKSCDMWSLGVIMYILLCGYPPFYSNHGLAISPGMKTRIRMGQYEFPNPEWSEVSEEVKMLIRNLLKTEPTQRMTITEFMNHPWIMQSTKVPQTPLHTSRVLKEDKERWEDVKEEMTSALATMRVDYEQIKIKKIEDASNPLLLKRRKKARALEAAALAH

Row | blocking of labeling of p38 and MK2 | SMILES
1 | does not completely block labeling | Cc1nc(Nc2ncc(C(=O)Nc3c(C)cccc3Cl)s2)cc(N2CCN(CCO)CC2)n1 [dasatinib]
2 | do not block labeling | C#Cc1cccc(Nc2ncnc3cc(OCCOC)c(OCCOC)cc23)c1 [erlotinib]
